Data published in patent US20230270714A1, “SALVINORIN COMPOSITIONS” (priority 2021, published 2023).
In brackets after ≈: the same amount, converted by molar mass. Several values for one entry are separate records, joined by “and”; a condition that tells them apart may be missing. Equal values may be shown once.

How the values were obtained:
[1] = Pharmacokinetics of subcutaneous Salvinorin A in rats, Day 1 and Day 8 (in 1-methyl-2-pyrrolidine, polyethylene glycol 400 1:9 v/v); format: in vivo, Sprague-Dawley rats; details: for time to peak plasma concentration (Tmax): summary of two separate studies
Method: In another experiment Salvinorin A was formulated at three different dose concentrations (1 mg/mL, 5 mg/mL, and 10 mg/mL Salvinorin A in 1-methyl-2-pyrrolidine, polyethylene glycol 400 at a 1:9 v/v ratio) and administered via injection (subcutaneous) to three groups of Sprague-Dawley rats (each group including female and male rats). The formulation containing 10 mg/mL Salvinorin A was administered as two injections at separate dosage sites (total dose of 100 mg/kg). The same groups of rats were administered a second dose of the injectable composition 7 days after the first dosing.

[2] = Solubilization of Salvinorin A mixed with solubilizers in water (supersaturated mixtures, HPLC)
[3] = Solubility of Salvinorin A API and Salvinorin A loaded buccal films in 10 mM PBS pH 7; format: physicochemical
Method: After 3 hours samples were filtered through 0.45/0.22 micron filter and tested for content by HPLC analysis.

[4] = Salvinorin A solubility in polar aprotic solvents; format: physicochemical
Method: In Table 9 below the solubility of Salvinorin A in polar aprotic solvents was evaluated by increasing the amount of Salvinorin A in the candidate solvents.

[5] = administered orally, even at higher doses; cited from earlier work
[6] = Pharmacokinetics of subcutaneous Salvinorin A in rats, first experiment (in 1-methyl-2-pyrrolidine, polyethylene glycol 400 1:9 v/v); format: in vivo, male Sprague-Dawley rats
Method: A series of experiments were conducted in order to evaluate the pharmacokinetics of injectable Salvinorin A compositions in rats. In the first experiment Salvinorin A was formulated at two different dose concentrations (5 mg/mL and 20 mg/mL Salvinorin A in 1-methyl-2-pyrrolidine, polyethylene glycol 400 at a 1:9 v/v ratio) and administered via injection (subcutaneous) to two groups of male Sprague-Dawley rats.

[7] = Solubility of Salvinorin A in solubilizer oils (HPLC)
[8] = Day 1, Group 10, 5 mg/kg subcutaneous, Mean of M and F
[9] = Day 1, Group 10, 5 mg/kg subcutaneous, Sex F
[10] = Day 1, Group 10, 5 mg/kg subcutaneous, Sex M
[11] = Day 1, Group 11, 25 mg/kg subcutaneous, Mean of M and F
[12] = Day 1, Group 11, 25 mg/kg subcutaneous, Sex F
[13] = Day 1, Group 11, 25 mg/kg subcutaneous, Sex M
[14] = Day 1, Group 12, 100 mg/kg subcutaneous (two injections), Mean of M and F
[15] = Day 1, Group 12, 100 mg/kg subcutaneous (two injections), Sex F
[16] = Day 1, Group 12, 100 mg/kg subcutaneous (two injections), Sex M
[17] = Day 8 (second dose), Group 10, 5 mg/kg subcutaneous, Mean of M and F
[18] = Day 8 (second dose), Group 10, 5 mg/kg subcutaneous, Sex F
[19] = Day 8 (second dose), Group 10, 5 mg/kg subcutaneous, Sex M
[20] = Day 8 (second dose), Group 11, 25 mg/kg subcutaneous, Mean of M and F
[21] = Day 8 (second dose), Group 11, 25 mg/kg subcutaneous, Sex F
[22] = Day 8 (second dose), Group 11, 25 mg/kg subcutaneous, Sex M
[23] = Day 8 (second dose), Group 12, 100 mg/kg subcutaneous (two injections), Mean of M and F
[24] = Day 8 (second dose), Group 12, 100 mg/kg subcutaneous (two injections), Sex F
[25] = Day 8 (second dose), Group 12, 100 mg/kg subcutaneous (two injections), Sex M
[26] = Group 1, 25 mg/kg subcutaneous, Mean
[27] = Group 1, 25 mg/kg subcutaneous, individual rats 0, 1, 2, 25 mg/kg
[28] = Group 2, 100 mg/kg subcutaneous, Mean
[29] = Group 2, 100 mg/kg subcutaneous, individual rats 3, 4, 5, 100 mg/kg

**Q.** What does the source list for `COC(=O)[C@@H]1C[C@H](OC(C)=O)C(=O)[C@H]2[C@@]1(C)CC[C@H]1C(=O)O[C@H](c3ccoc3)C[C@]21C` [Salvinorin A]?
**A.** AUClast [1, 8]: 191 ng·h/mL; Cmax [1, 8]: 67.1 ng/mL; Tmax [1, 8]: 3 h; AUClast [1, 9]: 233 ng·h/mL; Cmax [1, 9]: 75.8 ng/mL; Tlast [1, 9]: 4 h; Tmax [1, 9]: 4 h; AUClast [1, 10]: 148 ng·h/mL; Cmax [1, 10]: 58.4 ng/mL; Tlast [1, 10]: 4 h; Tmax [1, 10]: 2 h; AUClast [1, 11]: 375 ng·h/mL; Cmax [1, 11]: 192 ng/mL; Tmax [1, 11]: 0.75 h; AUClast [1, 12]: 389 ng·h/mL; Cmax [1, 12]: 250 ng/mL; Tlast [1, 12]: 4 h; Tmax [1, 12]: 0.5 h; AUClast [1, 13]: 361 ng·h/mL; Cmax [1, 13]: 135 ng/mL; Tlast [1, 13]: 4 h; Tmax [1, 13]: 1 h; AUC0-00 [1, 14]: 1580 ng·h/mL; AUClast [1, 14]: 1540 ng·h/mL; Cmax [1, 14]: 370 ng/mL; Tmax [1, 14]: 0.075 h; T½ [1, 14]: 4.79 h; AUC0-00 [1, 15]: 1920 ng·h/mL; AUClast [1, 15]: 1870 ng·h/mL; Cmax [1, 15]: 419 ng/mL; Tlast [1, 15]: 24 h; Tmax [1, 15]: 1 h; T½ [1, 15]: 4.80 h; AUC0-00 [1, 16]: 1240 ng·h/mL; AUClast [1, 16]: 1210 ng·h/mL; Cmax [1, 16]: 321 ng/mL; Tlast [1, 16]: 24 h; Tmax [1, 16]: 0.5 h; T½ [1, 16]: 4.78 h; AUClast [1, 17]: 200 ng·h/mL; Cmax [1, 17]: 74.5 ng/mL; Tmax [1, 17]: 2 h; AUClast [1, 18]: 211 ng·h/mL; Cmax [1, 18]: 78.3 ng/mL; Tlast [1, 18]: 4 h; Tmax [1, 18]: 2 h; AUClast [1, 19]: 188 ng·h/mL; Cmax [1, 19]: 70.6 ng/mL; Tlast [1, 19]: 4 h; Tmax [1, 19]: 2 h; (h) [1, 20]: 4.54 h; AUC0-00 [1, 20]: 735 ng·h/mL; AUClast [1, 20]: 723 ng·h/mL; Cmax [1, 20]: 174 ng/mL; Tmax [1, 20]: 0.75 h; (h) [1, 21]: 4.16 h; AUC0-00 [1, 21]: 958 ng·h/mL; AUClast [1, 21]: 946 ng·h/mL; Cmax [1, 21]: 162 ng/mL; Tlast [1, 21]: 24 h; Tmax [1, 21]: 0.5 h; (h) [1, 22]: 4.92 h; AUC0-00 [1, 22]: 512 ng·h/mL; AUClast [1, 22]: 500 ng·h/mL; Cmax [1, 22]: 185 ng/mL; Tlast [1, 22]: 24 h; Tmax [1, 22]: 1 h; (h) [1, 23]: 5.00 h; AUC0-00 [1, 23]: 1420 ng·h/mL; AUClast [1, 23]: 1380 ng·h/mL; Cmax [1, 23]: 341 ng/mL; Tmax [1, 23]: 0.05 h; (h) [1, 24]: 4.80 h; AUC0-00 [1, 24]: 1520 ng·h/mL; AUClast [1, 24]: 1470 ng·h/mL; Cmax [1, 24]: 315 ng/mL; Tlast [1, 24]: 24 h; Tmax [1, 24]: 0.5 h; (h) [1, 25]: 5.20 h; AUC0-00 [1, 25]: 1320 ng·h/mL; AUClast [1, 25]: 1280 ng·h/mL; Cmax [1, 25]: 368 ng/mL; Tlast [1, 25]: 24 h; Tmax [1, 25]: 0.5 h; time to peak plasma concentration (Tmax) ([1]; subcutaneous dosing in the rat at 5 mg/kg): 2 to 4 h; time to peak plasma concentration (Tmax) ([1]; subcutaneous dosing in the rat at 25 and 100 mg/kg): 0.5 h; Solubility (mg/ml) HPLC ([2]; Benzalkonium chloride (BKC) 50 mg, Salvinorin A 21 mg, water 10 ml): 0.008 mg/mL (≈ 18.5 µM); Solubility (mg/ml) HPLC ([2]; Poloxamer 407 (Lutrol micro 127 MP) 150 mg, Salvinorin A 21 mg, water 10 ml): 0.008 mg/mL (≈ 18.5 µM); Solubility (mg/ml) HPLC ([2]; SPAN 60 103.00 mg, Salvinorin A 12.00 mg, water 5 ml): 0.013 mg/mL (≈ 30.1 µM); Solubility (mg/ml) HPLC ([2]; Sodium Deoxycholate 100 mg, Salvinorin A 22 mg, water 10 ml): 0.078 mg/mL (≈ 180 µM); Solubility (mg/ml) HPLC ([2]; Sodium dodecyl sulfate (SDS; SLS) 50 mg, Salvinorin A 21 mg, water 10 ml): 0.013 mg/mL (≈ 30.1 µM); Solubility (mg/ml) HPLC ([2]; TPGS (soluble vitamin E) 100 mg, Salvinorin A 23 mg, water 10 ml): 0.011 mg/mL (≈ 25.4 µM); Solubility ([3]; 4 mg equivalent of API powder or film in 10 mL 10 mM PBS, pH 7, 3 hours, filtered, HPLC): 1.8 µg/mL; Solubility (in words) ([3]; 10 mM PBS, pH 7.0): very low solubility; Solubility (Y= soluble, N= not soluble completely) ([4]; DMA, 100 mg/ml): Y (Y= soluble); Solubility (Y= soluble, N= not soluble completely) ([4]; DMA, 200 mg/ml): N (N= not soluble completely); Solubility (Y= soluble, N= not soluble completely) ([4]; DMSO, 100 mg/ml): Y (Y= soluble); Solubility (Y= soluble, N= not soluble completely) ([4]; DMSO, 200 mg/ml): N (N= not soluble completely); Solubility (Y= soluble, N= not soluble completely) ([4]; NMP, 20 mg/ml): Y (Y= soluble); Solubility (Y= soluble, N= not soluble completely) ([4]; NMP, 100 mg/ml): Y (Y= soluble); Solubility (Y= soluble, N= not soluble completely) ([4]; NMP, 200 mg/ml): Y (Y= soluble); psychoactive effects [5]: fails to exhibit any psychoactive effects; AUC0-00 [6, 26]: 457.0 ng·h/mL; AUClast [6, 26]: 427.3 ng·h/mL; Cmax [6, 26]: 215.3 ng/mL; Tmax [6, 26]: 0.50 h; T½ [6, 26]: 1.5 h; Tmax ([6]; Group 1, 25 mg/kg subcutaneous, individual rats 0, 1, 2): 0.50 h; AUC0-00 [6, 27]: 389 ng·h/mL and 422 ng·h/mL and 560 ng·h/mL; AUClast [6, 27]: 362 ng·h/mL and 405 ng·h/mL and 515 ng·h/mL; Cmax [6, 27]: 209 ng/mL and 213 ng/mL and 224 ng/mL; T½ [6, 27]: 1.00 h and 1.58 h and 1.96 h; AUC0-00 [6, 28]: 419.3 ng·h/mL; AUClast [6, 28]: 395.0 ng·h/mL; Cmax [6, 28]: 183.3 ng/mL; Tmax [6, 28]: 0.7 h; T½ [6, 28]: 1.5 h; AUC0-00 [6, 29]: 365 ng·h/mL and 498 ng·h/mL and 395 ng·h/mL; AUClast [6, 29]: 348 ng·h/mL and 461 ng·h/mL and 376 ng·h/mL; Cmax [6, 29]: 187 ng/mL and 208 ng/mL and 155 ng/mL; Tmax [6, 29]: 1.00 h and 0.50 h; T½ [6, 29]: 0.87 h and 1.91 h and 1.73 h; Solubility (mg/ml) HPLC ([7]; Eucaliptol 5 g, Salvinorin A 12.00 mg): 0.108 mg/mL (≈ 250 µM); Solubility (mg/ml) HPLC ([7]; L Menthone 5 g, Salvinorin A 10.00 mg): 0.101 mg/mL (≈ 234 µM); Solubility (mg/ml) HPLC ([7]; Oleyl Alcohol 5 g, Salvinorin A 11.00 mg): 0.065 mg/mL (≈ 150 µM); Solubility (mg/ml) HPLC ([7]; Peppermint oil 5 g, Salvinorin A 9.90 mg): 0.384 mg/mL (≈ 888 µM); Solubility (mg/ml) HPLC ([7]; S Limonene 5 g, Salvinorin A 10.00 mg): 0.052 mg/mL (≈ 120 µM); Solubility (mg/ml) HPLC ([7]; Soybean oil 5 g, Salvinorin A 11.00 mg): 0.032 mg/mL (≈ 74 µM)
